# Tests used:
# [1] = system: rice seedlings edited at the OsPPO2 L422M/F442M site and wild-type strain; experiment: Tolerance of gene-edited homozygous OsPPO2 L422M/F442M rice seedlings (4-leaf stage)
# [2] = system: Arabidopsis thaliana overexpressing rice OsPPO2 WT or L422M/F442M; experiment: Resistance test of Arabidopsis thaliana seeds overexpressing rice OsPPO2 on MS media containing PPO inhibitor herbicides; assay type: in vivo; conditions: for tolerance of L422M/F442M overexpression relative to overexpression of the wild type PPO2: FIGS. 4-6, different concentrations; for resistance of plants at higher application concentrations: 2 μM, 1 μM and 1 μM (compound A, flumioxazin, saflufenacil respectively); for tolerance/resistance of plants compared with wild-type Arabidopsis thaliana: plants overexpressing OsPPO2 L422M/F442M and OsPPO2 WT, levels similar at 50 nM, 10 nM and 40 nM (compound A, flumioxazin, saflufenacil respectively)
# Procedure: In order to rapidly verify the tolerance of rice OsPPO2 L422M/F442M mutants to different compounds, vectors for overexpressing wild-type and mutant rice PPO2 genes were constructed by conventional methods and overexpressed in Arabidopsis thaliana.
# The obtained Arabidopsis thaliana seeds overexpressing rice OsPPO2 mutants and wild types were tested for resistance on MS media (petri dishes) that contained PPO inhibitor herbicidal compounds of various concentrations.
# [3] = overexpressing OsPPO2 L422M/F442M
structure (smiles),measurement,setting,value
CCOc1cc(Oc2ccc(C(F)(F)F)cc2Cl)ccc1[N+](=O)[O-] [oxyfluorfen],crop safety when other PPO inhibiting herbicides were applied,[1],excellent crop safety
"CCOC(=O)COc1ncccc1Oc1cc(-n2c(=O)cc(C(F)(F)F)n(C)c2=O)c(F)cc1Cl [Epyrifenacil, [3-[2-chloro-4-fluoro-5-(1-methyl-6-trifluoromethyl-2,4-dioxo-1,2,3,4-tetrahydropyrimidin-3-yl)phenoxy]-2-pyridyloxy] ethyl acetate]",crop safety when other PPO inhibiting herbicides were applied,[1],excellent crop safety
CCOC(=O)C1(C)CC(c2cc(-n3c(=O)cc(C(F)(F)F)n(C)c3=O)c(F)cc2Cl)=NO1 (stereo not shown),crop safety when other PPO inhibiting herbicides were applied,[1],excellent crop safety
C#CCN(C)c1c(C#N)cnn1-c1nn2c(c1Cl)CCCC2 [pyraclonil],crop safety when other PPO inhibiting herbicides were applied,[1],excellent crop safety
CS(=O)(=O)NC(=O)c1cc(Oc2ccc(C(F)(F)F)cc2Cl)ccc1[N+](=O)[O-] [fomesafen],crop safety when other PPO inhibiting herbicides were applied,[1],excellent crop safety
C#CCN1C(=O)C(F)(F)Oc2cc(F)c(-n3c(=O)n(C)c(=S)n(C)c3=O)cc21 [trifludimoxazin],crop safety when other PPO inhibiting herbicides were applied,[1],excellent crop safety
C#CCN1C(=O)COc2cc(F)c(N3C(=O)C4=C(CCCC4)C3=O)cc21 [flumioxazin],tolerance of L422M/F442M overexpression relative to overexpression of the wild type PPO2,[2],stronger tolerance
same,resistance of plants at higher application concentrations,[2]; [3],still exhibited resistance
same,resistance of plants at higher application concentrations,[2]; overexpressing OsPPO2 WT,no difference from the wild-type Arabidopsis thaliana controls
same,tolerance/resistance of plants compared with wild-type Arabidopsis thaliana,[2],certain tolerance/resistance
same,crop safety when other PPO inhibiting herbicides were applied,[1],excellent crop safety
CC(C)N(C)S(=O)(=O)NC(=O)c1cc(-n2c(=O)cc(C(F)(F)F)n(C)c2=O)c(F)cc1Cl [saflufenacil],tolerance of L422M/F442M overexpression relative to overexpression of the wild type PPO2,[2],stronger tolerance
same,resistance of plants at higher application concentrations,[2]; [3],still exhibited resistance
same,resistance of plants at higher application concentrations,[2]; overexpressing OsPPO2 WT,no difference from the wild-type Arabidopsis thaliana controls
same,tolerance/resistance of plants compared with wild-type Arabidopsis thaliana,[2],certain tolerance/resistance
same,crop safety when other PPO inhibiting herbicides were applied,[1],excellent crop safety
Cc1nn(-c2cc(CC(Cl)C(=O)O)c(Cl)cc2F)c(=O)n1C(F)F (stereo not shown) [carfentrazone],crop safety when other PPO inhibiting herbicides were applied,[1],excellent crop safety
COC(=O)CCNC(=O)C(C)Sc1cc(-n2c(=O)cc(C(F)(F)F)n(C)c2=O)c(F)cc1Cl (stereo not shown) [tiafenacil],crop safety when other PPO inhibiting herbicides were applied,[1],excellent crop safety
Cc1nn(-c2cc(NS(C)(=O)=O)c(Cl)cc2Cl)c(=O)n1C(F)F [sulfentrazone],crop safety when other PPO inhibiting herbicides were applied,[1],excellent crop safety

# — patent publication US20250230462A1, “PPO2 POLYPEPTIDE HAVING TOLERANCE TO PPO INHIBITOR HERBICIDE AND APPLICATION” (priority 2022, published 2025)
